This is an account of results in US20250213482A1, “OXYGEN-ENHANCED ADAPTIVE FUNCTIONAL BEVERAGE FOR ANTI-AGING AND METHOD OF PREPARATION” (priority 2025, published 2025).

Data set [1] is described as follows: daily intake of NMN for 90 days, long-term safety. The data set is classed as in vivo. The conditions noted are these: 500 mg daily for 90 days.
Data set [2] is described as follows: PQQ supplementation over an 8-week period. The data set is classed as in vivo. Conditions: 8-week period of supplementation. From the text: In another embodiment, PQQ supplementation promotes mitochondrial biogenesis and boosts oxidative metabolism, resulting in increased energy production. […] PQQ acts as a potent antioxidant, reducing oxidative stress by neutralizing harmful free radicals and lowering inflammation. By protecting neurons from oxidative damage, PQQ supplementation contributes to improved cognitive performance, including enhanced memory, attention, and mental clarity.

As for `NC(=O)c1ccc[n+]([C@@H]2O[C@H](COP(=O)([O-])O)[C@@H](O)[C@H]2O)c1` [NMN, nicotinamide mononucleotide], the “impact on blood sugar, liver function, or kidney function” value in data set [1] is on record as “no impact on blood sugar, liver function, or kidney function”. Take `O=C(O)c1cc(C(=O)O)c2c(n1)C(=O)C(=O)c1cc(C(=O)O)[nH]c1-2` [PQQ, pyrroloquinoline quinone]: in data set [2], the cognitive function result is “enhances cognitive function” and the oxidative stress result is on record as “reduces oxidative stress”.
